As usually defined, the IC50 is the concentration that gives 50% inhibition. A high value points to weaker potency in that assay.

Consider 6 compounds from patent US7425563B2, “4-(Substituted aryl)-5-hydroxyisoquinolinone derivative” (Kyorin Pharmaceutical Co., Ltd., priority 2002, dated 2008).

The experiment concerns the target T1, PARP (Homo sapiens, UniProt P09874).
T1 construct: purchased Trevigen 4667-050-01
The experiment is described as follows: Inhibitory experiment against PARP activity. It counts as biochemical. To be noted: PARP (Trevigen), [14C]NAD, activated DNA, 25° C., 10 minutes; concentration decreasing enzyme activity to 50%. As for the experimental part:
After mixing well, the contents were warmed to 25° C. in a water bath. After 10 minutes, the reaction was stopped by adding 1 mL of ice-cold 20% trichloroacetic acid and the test tube was left on ice. The precipitates were collected on a glass fiber filter by suction filtration and washed 5 times with 5% trichloroacetic acid. The radioactivity on the filter was measured with liquid scintillation counter.

T1 sequence (P09874 whole entry): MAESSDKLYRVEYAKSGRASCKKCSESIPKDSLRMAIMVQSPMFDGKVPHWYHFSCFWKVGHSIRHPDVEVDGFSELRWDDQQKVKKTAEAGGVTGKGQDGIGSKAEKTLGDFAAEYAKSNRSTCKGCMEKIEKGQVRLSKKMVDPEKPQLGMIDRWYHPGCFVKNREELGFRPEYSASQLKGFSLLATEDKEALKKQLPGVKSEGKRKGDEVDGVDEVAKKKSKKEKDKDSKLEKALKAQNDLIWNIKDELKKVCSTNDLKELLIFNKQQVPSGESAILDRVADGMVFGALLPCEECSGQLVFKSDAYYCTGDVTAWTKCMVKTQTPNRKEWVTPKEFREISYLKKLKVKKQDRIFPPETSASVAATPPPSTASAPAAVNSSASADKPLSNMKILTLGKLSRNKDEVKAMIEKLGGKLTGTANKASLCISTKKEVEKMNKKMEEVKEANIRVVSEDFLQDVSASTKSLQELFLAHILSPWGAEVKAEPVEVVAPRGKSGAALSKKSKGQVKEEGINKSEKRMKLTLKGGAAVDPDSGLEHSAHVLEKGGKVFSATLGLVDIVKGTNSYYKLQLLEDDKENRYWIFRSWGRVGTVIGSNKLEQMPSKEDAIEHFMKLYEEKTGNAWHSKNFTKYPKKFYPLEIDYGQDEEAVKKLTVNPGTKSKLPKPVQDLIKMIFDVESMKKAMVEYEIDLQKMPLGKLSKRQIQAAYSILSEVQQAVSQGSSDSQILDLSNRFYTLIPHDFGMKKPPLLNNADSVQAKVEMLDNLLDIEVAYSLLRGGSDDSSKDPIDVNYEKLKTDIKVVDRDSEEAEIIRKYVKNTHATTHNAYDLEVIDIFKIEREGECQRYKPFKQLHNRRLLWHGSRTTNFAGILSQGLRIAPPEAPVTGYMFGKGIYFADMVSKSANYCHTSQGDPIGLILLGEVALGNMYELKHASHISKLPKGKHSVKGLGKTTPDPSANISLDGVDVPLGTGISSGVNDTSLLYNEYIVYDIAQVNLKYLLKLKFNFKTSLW

As for `CN(CCCc1ccccc1)Cc1ccc(-c2c[nH]c(=O)c3cccc(O)c23)cc1` [Example 21], half-maximal inhibition (IC50) was put at 47 nM.

The compound `CN(Cc1ccc(-c2c[nH]c(=O)c3cccc(O)c23)cc1)CC1CCCCC1` [Example 23] displayed an IC50 of 126 nM.

Consider `O=c1[nH]cc(-c2ccc(CN3CC=C(c4ccccc4)CC3)cc2)c2c(O)cccc12` [Example 61, 1,2-Dihydro-5-hydroxy-1-oxo-4-[4-[(4-phenyl-1,2,3,6-tetrahydropyridine-1-yl)methyl]phenyl]isoquinoline], for which it took 20 nM to reach half-maximal inhibition (IC50).

`CN(CCc1ccccc1)Cc1ccc(-c2c[nH]c(=O)c3cccc(O)c23)cc1` [Example 19] displayed an IC50 of 41 nM.

As to `O=c1[nH]cc(-c2ccc(CN3CCCC3)cc2)c2c(O)cccc12` [Example 32], the IC50 was 33 nM.

With `CN(Cc1ccccc1)Cc1ccc(-c2c[nH]c(=O)c3cccc(O)c23)cc1` [Example 12], 54 nM corresponded to half-maximal inhibition (IC50).
